molecular target: JAK2 (JH1 domain-catalytic, Y1007F, Y1008F) kinase (Homo sapiens (Human), UniProt O60674, Y1007F/Y1008F); assay: JAK2 JH1 Domain Binding Assay; conditions: qPCR readout
Procedure, shortened: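 JH1 catalytic domain (Y1007F/Y1008F) expressed as NFkB DNA-binding-domain fusion in HEK293 cells, DNA-tagged. Competition with immobilized biotinylated ligand on streptavidin beads, 1 h at RT in PBS/Tween/BSA/DTT; bound kinase eluted with free ligand and quantified by qPCR.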

Chain of JAK2 (JH1 domain-catalytic, Y1007F, Y1008F) kinase (O60674 849-1124 Y1007F/Y1008F): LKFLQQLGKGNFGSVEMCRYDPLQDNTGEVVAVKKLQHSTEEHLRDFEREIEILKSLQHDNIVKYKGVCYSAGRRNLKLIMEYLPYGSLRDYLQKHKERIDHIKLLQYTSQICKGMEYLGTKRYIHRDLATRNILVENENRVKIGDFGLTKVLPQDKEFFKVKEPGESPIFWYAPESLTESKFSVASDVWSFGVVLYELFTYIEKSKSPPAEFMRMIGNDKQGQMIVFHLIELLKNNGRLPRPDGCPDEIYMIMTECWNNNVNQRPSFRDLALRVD

| Kd | SMILES |
| --- | --- |
| < 10 nM | COCCOc1n[nH]c2ncc(N3CC[C@H](N(C)C(=O)Nc4cc(C(F)(F)F)cn(C)c4=O)[C@H](F)C3)cc12 [Example I-104-b, 1-((3R,4S)-3-fluoro-1-(3-(2-methoxyethoxy)-1H-pyrazolo[3,4-b]pyridin-5-yl)piperidin-4-yl)-1-methyl-3-(1-methyl-2-oxo-5-(trifluoromethyl)-1,2-dihydropyridin-3-yl)urea] |
| < 10 nM | C[C@H]1C[C@@H](N(C)C(=O)Nc2cc(C(F)(F)F)cn(C)c2=O)CCN1c1cnc2[nH]ncc2c1 [Example I-105-a, 1-methyl-1-((2S,4S)-2-methyl-1-(1H-pyrazolo[3,4-b]pyridin-5-yl)piperidin-4-yl)-3-(1-methyl-2-oxo-5-(trifluoromethyl)-1,2-dihydropyridin-3-yl)urea] |
| < 10 nM | C[C@@H]1C[C@H](N(C)C(=O)Nc2cc(C(F)(F)F)cn(C)c2=O)CCN1c1cnc2[nH]ncc2c1 [Example I-105-b, 1-methyl-1-((2R,4R)-2-methyl-1-(1H-pyrazolo[3,4-b]pyridin-5-yl)piperidin-4-yl)-3-(1-methyl-2-oxo-5-(trifluoromethyl)-1,2-dihydropyridin-3-yl)urea] |
| < 10 nM | COc1n[nH]c2ncc(N3CC[C@@H](N(C)C(=O)Nc4cc(C(F)(F)F)cn(C)c4=O)[C@@H](OC)C3)cc12 [Example I-106-a, 1-((3S,4R)-3-methoxy-1-(3-methoxy-1H-pyrazolo[3,4-b]pyridin-5-yl)piperidin-4-yl)-1-methyl-3-(1-methyl-2-oxo-5-(trifluoromethyl)-1,2-dihydropyridin-3-yl)urea] |
| < 10 nM | COc1n[nH]c2ncc(N3CC[C@H](N(C)C(=O)Nc4cc(C(F)(F)F)cn(C)c4=O)[C@H](OC)C3)cc12 [Example I-106-b, 1-((3R,4S)-3-methoxy-1-(3-methoxy-1H-pyrazolo[3,4-b]pyridin-5-yl)piperidin-4-yl)-1-methyl-3-(1-methyl-2-oxo-5-(trifluoromethyl)-1,2-dihydropyridin-3-yl)urea] |
| < 10 nM | CN(C(=O)Nc1cc(C(F)(F)F)cn(C)c1=O)[C@@H]1CCN(c2cnc3[nH]nc(OC4CCOCC4)c3c2)C[C@@H]1F [Example I-107-a, 1-((3S,4R)-3-fluoro-1-(3-((tetrahydro-2H-pyran-4-yl)oxy)-1H-pyrazolo[3,4-b]pyridin-5-yl)piperidin-4-yl)-1-methyl-3-(1-methyl-2-oxo-5-(trifluoromethyl)-1,2-dihydropyridin-3-yl)urea] |
| < 10 nM | CN(C(=O)Nc1cc(C(F)(F)F)cn(C)c1=O)[C@H]1CCN(c2cnc3[nH]nc(OC4CCOCC4)c3c2)C[C@H]1F [Example I-107-b, 1-((3R,4S)-3-fluoro-1-(3-((tetrahydro-2H-pyran-4-yl)oxy)-1H-pyrazolo[3,4-b]pyridin-5-yl)piperidin-4-yl)-1-methyl-3-(1-methyl-2-oxo-5-(trifluoromethyl)-1,2-dihydropyridin-3-yl)urea] |
| 10 to 50 nM | COc1n[nH]c2ncc(N3CC[C@@H](N(C)C(=O)Nc4cc(C(F)(F)F)cn(C)c4=O)[C@H](OC)C3)cc12 [Example I-108-a, 1-((3R,4R)-3-methoxy-1-(3-methoxy-1H-pyrazolo[3,4-b]pyridin-5-yl)piperidin-4-yl)-1-methyl-3-(1-methyl-2-oxo-5-(trifluoromethyl)-1,2-dihydropyridin-3-yl)urea] |
| 10 to 50 nM | COc1n[nH]c2ncc(N3CC[C@H](N(C)C(=O)Nc4cc(C(F)(F)F)cn(C)c4=O)[C@@H](OC)C3)cc12 [Example I-108-b, 1-((3S,4S)-3-methoxy-1-(3-methoxy-1H-pyrazolo[3,4-b]pyridin-5-yl)piperidin-4-yl)-1-methyl-3-(1-methyl-2-oxo-5-(trifluoromethyl)-1,2-dihydropyridin-3-yl)urea] |
| 10 to 50 nM | CO[C@@H]1CN(c2cnc3[nH]ncc3c2)CC[C@H]1N(C)C(=O)Nc1cc(C(F)(F)F)cn(C)c1=O [Example I-109-a, 1-((3R,4R)-3-methoxy-1-(1H-pyrazolo[3,4-b]pyridin-5-yl)piperidin-4-yl)-1-methyl-3-(1-methyl-2-oxo-5-(trifluoromethyl)-1,2-dihydropyridin-3-yl)urea] |
| 10 to 50 nM | CO[C@H]1CN(c2cnc3[nH]ncc3c2)CC[C@@H]1N(C)C(=O)Nc1cc(C(F)(F)F)cn(C)c1=O [Example I-109-b, 1-((3S,4S)-3-methoxy-1-(1H-pyrazolo[3,4-b]pyridin-5-yl)piperidin-4-yl)-1-methyl-3-(1-methyl-2-oxo-5-(trifluoromethyl)-1,2-dihydropyridin-3-yl)urea] |
| < 10 nM | COCc1cc2nc(N3CC[C@@H](N(C)C(=O)Nc4cc(C(F)(F)F)cn(C)c4=O)C(F)(F)C3)cnc2[nH]1 [Example I-110-a, (R)-1-(3,3-difluoro-1-(6-(methoxymethyl)-5H-pyrrolo[2,3-b]pyrazin-2-yl)piperidin-4-yl)-1-methyl-3-(1-methyl-2-oxo-5-(trifluoromethyl)-1,2-dihydropyridin-3-yl)urea] |
| < 10 nM | COCc1cc2nc(N3CC[C@H](N(C)C(=O)Nc4cc(C(F)(F)F)cn(C)c4=O)C(F)(F)C3)cnc2[nH]1 [Example I-110-b, (S)-1-(3,3-difluoro-1-(6-(methoxymethyl)-5H-pyrrolo[2,3-b]pyrazin-2-yl)piperidin-4-yl)-1-methyl-3-(1-methyl-2-oxo-5-(trifluoromethyl)-1,2-dihydropyridin-3-yl)urea] |
| < 10 nM | COCc1cc2nc(N3CC[C@@H](N(C)C(=O)Nc4cc(C(F)(F)F)cn(C)c4=O)[C@@H](F)C3)cnc2[nH]1 [Example I-111-a, 1-((3S,4R)-3-fluoro-1-(6-(methoxymethyl)-5H-pyrrolo[2,3-b]pyrazin-2-yl)piperidin-4-yl)-1-methyl-3-(1-methyl-2-oxo-5-(trifluoromethyl)-1,2-dihydropyridin-3-yl)urea] |
| < 10 nM | COCc1cc2nc(N3CC[C@H](N(C)C(=O)Nc4cc(C(F)(F)F)cn(C)c4=O)[C@H](F)C3)cnc2[nH]1 [Example I-111-b, 1-((3R,4S)-3-fluoro-1-(6-(methoxymethyl)-5H-pyrrolo[2,3-b]pyrazin-2-yl)piperidin-4-yl)-1-methyl-3-(1-methyl-2-oxo-5-(trifluoromethyl)-1,2-dihydropyridin-3-yl)urea] |
| 10 to 50 nM | CN(C(=O)Nc1cc(C(F)(F)F)cn(C)c1=O)C1CCN(c2cnc3[nH]n(C4CCOCC4)c(=O)c3c2)CC1 [Example I-112, 1-methyl-3-(1-methyl-2-oxo-5-(trifluoromethyl)-1,2-dihydropyridin-3-yl)-1-(1-(3-oxo-2-(tetrahydro-2H-pyran-4-yl)-2,3-dihydro-1H-pyrazolo[3,4-b]pyridin-5-yl)piperidin-4-yl)urea] |
| 50 to 1000 nM | COCc1cc2nc(N3CC[C@H](N(C)C(=O)Nc4cc(C(F)(F)F)cn(C)c4=O)[C@@H](OC)C3)cnc2[nH]1 [Example I-113-a, 1-((3S,4S)-3-methoxy-1-(6-(methoxymethyl)-5H-pyrrolo[2,3-b]pyrazin-2-yl)piperidin-4-yl)-1-methyl-3-(1-methyl-2-oxo-5-(trifluoromethyl)-1,2-dihydropyridin-3-yl)urea] |
| 1000 to 5000 nM | COCc1cc2nc(N3CC[C@@H](N(C)C(=O)Nc4cc(C(F)(F)F)cn(C)c4=O)[C@H](OC)C3)cnc2[nH]1 [Example I-113-b, 1-((3R,4R)-3-methoxy-1-(6-(methoxymethyl)-5H-pyrrolo[2,3-b]pyrazin-2-yl)piperidin-4-yl)-1-methyl-3-(1-methyl-2-oxo-5-(trifluoromethyl)-1,2-dihydropyridin-3-yl)urea] |
| < 10 nM | CN(C(=O)Nc1cc(C(F)(F)F)cn(C)c1=O)[C@H]1CCN(c2cnc3[nH]nc(OC4CCOCC4)c3c2)C[C@@H]1F [Example I-114-a, 1-((3S,4S)-3-fluoro-1-(3-((tetrahydro-2H-pyran-4-yl)oxy)-1H-pyrazolo[3,4-b]pyridin-5-yl)piperidin-4-yl)-1-methyl-3-(1-methyl-2-oxo-5-(trifluoromethyl)-1,2-dihydropyridin-3-yl)urea] |
| < 10 nM | CN(C(=O)Nc1cc(C(F)(F)F)cn(C)c1=O)[C@@H]1CCN(c2cnc3[nH]nc(OC4CCOCC4)c3c2)C[C@H]1F [Example I-114-b, 1-((3R,4R)-3-fluoro-1-(3-((tetrahydro-2H-pyran-4-yl)oxy)-1H-pyrazolo[3,4-b]pyridin-5-yl)piperidin-4-yl)-1-methyl-3-(1-methyl-2-oxo-5-(trifluoromethyl)-1,2-dihydropyridin-3-yl)urea] |
| 10 to 50 nM | CO[C@@H]1CN(c2cnc3[nH]nc(N(C)C)c3c2)CC[C@H]1N(C)C(=O)Nc1cc(C(F)(F)F)cn(C)c1=O [Example I-115-a, 1-((3R,4R)-1-(3-(dimethylamino)-1/-pyrazolo[3,4-b]pyridin-5-yl)-3-methoxypiperidin-4-yl)-1-methyl-3-(1-methyl-2-oxo-5-(trifluoromethyl)-1,2-dihydropyridin-3-yl)urea] |
| 50 to 1000 nM | CO[C@H]1CN(c2cnc3[nH]nc(N(C)C)c3c2)CC[C@@H]1N(C)C(=O)Nc1cc(C(F)(F)F)cn(C)c1=O [Example I-115-b, 1-((3S,4S)-1-(3-(dimethylamino)-1H-pyrazolo[3,4-b]pyridin-5-yl)-3-methoxypiperidin-4-yl)-1-methyl-3-(1-methyl-2-oxo-5-(trifluoromethyl)-1,2-dihydropyridin-3-yl)urea] |
| < 10 nM | CN(C(=O)Nc1cc(C(F)(F)F)cn(C)c1=O)C12CC(c3cnc4[nH]ncc4c3)(C1)C2 [Example I-116, 1-(3-(1H-pyrazolo[3,4-b]pyridin-5-yl)bicyclo[1.1.1]pentan-1-yl)-1-methyl-3-(1-methyl-2-oxo-5-(trifluoromethyl)-1,2-dihydropyridin-3-yl)urea] |
| 50 to 1000 nM | CO[C@@H]1CN(c2cnc3[nH]c(C)cc3n2)CC[C@H]1N(C)C(=O)Nc1cc(C(F)(F)F)cn(C)c1=O [Example I-117-a, 1-((3R,4R)-3-methoxy-1-(6-methyl-5H-pyrrolo[2,3-b]pyrazin-2-yl)piperidin-4-yl)-1-methyl-3-(1-methyl-2-oxo-5-(trifluoromethyl)-1,2-dihydropyridin-3-yl)urea] |

From US20240116892A1, “HETEROCYCLIC AMIDE AND UREA COMPOUNDS AS JAK2 INHIBITORS” (Ajax Therapeutics, Inc., priority 2022, published 2024)
